Test results published in US7846955B2, “Salt” (AstraZeneca AB, priority 2007, dated 2010).
Structures can show the parent of a compound that is named as a salt.

Experiments:
[1] = target: human muscarinic receptors (M3) (Homo sapiens, UniProt P20309); experiment: Muscarinic Receptor Radioligand Binding Assay (SPA, [3H]-NMS); conditions: human M3 membranes on SPA beads, 16 hours incubation, read-out: M3 binding pIC50 (converted)
Description: The inhibitory effects of compounds of the napadisylate salt were determined by a Muscarinic Receptor Radioligand Binding Assay. Radioligand binding studies were carried out in Scintillation Proximity Assay (SPA) format utilising [3H]-N-methyl scopolamine ([3H]-NMS) and cell membranes expressing the human muscarinic receptors (M2 or M3) which were coated onto SPA beads. Coated SPA beads were incubated in 96-well plates in HEPES buffer with [3H]-NMS and M3 antagonist at various concentrations for 16 hours. Radioligand binding was then counted using a Wallac Microbeta scintillation counter.

[2] = Gravimetric vapour sorption (GVS) water uptake; assay type: physicochemical; conditions: at 80% RH (±0.3%), 25° C.
Description: • XRPD—PANalytical CubiX PRO machine in Ø-Ø configuration over the scan range 2° to 40° 2Ø with 100-second exposure per 0.02° increment. The X-rays were generated by a copper long-fine focus tube operated at 45 kV and 40 mA. The wavelength of the copper X-rays was 1.5418 Å. The Data was collected on zero background holders on which ˜2 mg of the compound was placed. The holder was made from a single crystal of silicon, which had been cut along a non-diffracting plane and then polished on an optically flat finish. The X-rays incident upon this surface were negated by Bragg extinction. • DSC thermograms were measured using a TA Q1000 Differential Scanning Calorimeter, with aluminium pans and pierced lids. The sample weights varied between 0.5 to 5 mg. The procedure was carried out under a flow of nitrogen gas (50 ml/min) and the temperature studied from 25 to 300° C. at a constant rate of temperature increase of 10° C. per minute. • TGA thermograms were measured using a TA Q500 Thermogravimetric Analyser, with platinum pans. The sample weights varied between 1 and 5 mg. The procedure was carried out under a flow of nitrogen gas (60 ml/min) and the temperature studied from 25 to 200° C. at a constant rate of temperature increase of 10° C. per minute. • GVS profiles were measured using a Dynamic Vapour Sorption DVS-1 instrument. […]

[3] = Evaluation of deaggregation properties of micronised material (Fine Particle Fraction); assay type: physicochemical; conditions: across relative humidity 0-75% RH
Excerpt: ‘Salt Form A’ was Micronised in a 50 mm jet mill, with ejector pressure 5 bar and milling pressure 1.5-2 bar, giving (90% yield). Particle size of the micronised material as determined by Malvern Laser Diffraction with dry powder feeder was d(0.1) 0.77 μm: d(0.5), 1.45μ: d(0.9): 2.65 μm.

human muscarinic receptors (M3), sequence (P20309 whole entry): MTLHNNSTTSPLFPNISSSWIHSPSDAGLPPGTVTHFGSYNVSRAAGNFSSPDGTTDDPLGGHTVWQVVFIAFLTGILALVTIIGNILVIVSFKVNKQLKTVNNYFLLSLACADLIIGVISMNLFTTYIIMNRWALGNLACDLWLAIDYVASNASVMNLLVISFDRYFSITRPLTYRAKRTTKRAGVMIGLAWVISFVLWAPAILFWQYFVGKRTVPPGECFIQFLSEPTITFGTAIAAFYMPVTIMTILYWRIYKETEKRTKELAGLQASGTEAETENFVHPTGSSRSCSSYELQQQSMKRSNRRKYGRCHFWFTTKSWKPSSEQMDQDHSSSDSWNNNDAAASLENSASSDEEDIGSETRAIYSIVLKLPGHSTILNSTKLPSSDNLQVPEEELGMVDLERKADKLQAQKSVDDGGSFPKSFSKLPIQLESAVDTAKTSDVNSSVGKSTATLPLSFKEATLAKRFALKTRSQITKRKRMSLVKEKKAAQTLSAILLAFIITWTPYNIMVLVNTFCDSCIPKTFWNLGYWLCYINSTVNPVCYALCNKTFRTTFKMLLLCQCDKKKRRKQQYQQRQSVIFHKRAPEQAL

| IC50 [1] [nM] | GVS weight increase [2] | Fine Particle Fraction (FPF) [3] [%] | Compound |
| --- | --- | --- | --- |
| 0.158 | – | – | C[N+](C)(CCOCc1ccc(Cl)cc1)Cc1cnc([C@](O)(c2ccccc2)C2CCCCC2)o1 [[2-(4-chloro-benzyloxy)-ethyl]-[2-((R)-cyclohexyl-hydroxy-phenyl-methyl)-oxazol-5-ylmethyl]-dimethyl-ammonium] |
| – | less than 0.5 % w/w | > 60 | C[N+](C)(CCOCc1ccc(Cl)cc1)Cc1cnc([C@](O)(c2ccccc2)C2CCCCC2)o1 [Salt Form A, [2-(4-chloro-benzyloxy)-ethyl]-[2-((R)-cyclohexyl-hydroxy-phenyl-methyl)-oxazol-5-ylmethyl]-dimethyl-ammonium hemi-naphthalene-1,5-disulfonate] |
